From ChEMBL document CHEMBL4382234, “Fluoroquinolone-isatin hybrids and their biological activities” (Eur J Med Chem, 2019) come the findings set out here.

The structures appear in SMILES notation. In brackets after ≈: the same amount, converted by molar mass.

For one data set, the system named is SW480. Put plainly: Anticancer activity against human SW480 cells after 48 hrs by MTT assay. The format is functional, cell-based. The conditions noted are these: SW480, 48 h. In general terms: Formazan colour is commonly taken as a measure of viable cells.
For another data set, the system named is HeLa. Put plainly: Anticancer activity against human HeLa cells after 48 hrs by MTT assay. The class given is functional, cell-based.
For another data set, the system named is A549. Nature of the data set: Anticancer activity against human A549 cells after 48 hrs by MTT assay. The format is functional, cell-based. To be noted: A549, 48 h.
The test system of the next data set is HepG2. Put plainly: Anticancer activity against human HepG2 cells after 48 hrs by MTT assay. The format is functional, cell-based. To be noted: HepG2, 48 h.
The subject of data set [1] is Escherichia coli. Nature of the data set: Antibacterial activity against Escherichia coli NCTC 10418 infected in po dosed CF mouse measured after 1 week. The format is functional. The conditions noted are these: NCTC 10418, po, 168 h.
Data set [2] in a line: Toxicity in po dosed CF mouse measured after 1 week. The format is organism-based. The conditions noted are these: in vivo.
The next data set concerns Salmonella typhi. Put plainly: Antibacterial activity against Salmonella typhi by agar dilution method. The class given is functional, Salmonella enterica subsp. enterica serovar Typhi. To be noted: Salmonella enterica. For orientation: In agar dilution, organisms are placed on agar that contains the substance at set levels.
The subject of data set [3] is Escherichia coli. Put plainly: Antibacterial activity against Escherichia coli by agar dilution method. The class given is functional.
The test system of a further data set is Vibrio cholerae. Nature of the data set: Antibacterial activity against Vibrio cholerae by agar dilution method. The class given is functional.
Another data set relates to Staphylococcus aureus. Put plainly: Antibacterial activity against Staphylococcus aureus by agar dilution method. The class given is functional.
For data set [4], the system named is Staphylococcus epidermidis. Nature of the data set: Antibacterial activity against Staphylococcus epidermidis by agar dilution method. The format is functional.
For the next data set, the system named is Klebsiella pneumoniae. Nature of the data set: Antibacterial activity against Klebsiella pneumoniae by agar dilution method. The class given is functional.
For another data set, the system named is Pseudomonas aeruginosa. Put plainly: Antibacterial activity against Pseudomonas aeruginosa by agar dilution method. The class given is functional.
The test system of the next data set is Shigella flexneri. Nature of the data set: Antibacterial activity against Shigella flexneri by agar dilution method. The class given is functional.
The test system of a further data set is Citrobacter freundii. Nature of the data set: Antibacterial activity against Citrobacter freundii by agar dilution method. The class given is functional.
The test system of data set [5] is Human immunodeficiency virus 1. Put plainly: Antiviral activity against HIV1 3B infected in human MT4 cells after 5 days by spectrophotometric method. The format is functional, organism-based. To be noted: Human immunodeficiency virus 1, 3B, MT4, 120 h.
The subject of data set [6] is Mycobacterium tuberculosis. Put plainly: Antimycobacterial activity against Mycobacterium tuberculosis H37Rv after 3 to 7 days by rapid direct susceptibility test. The format is functional.
Data set [7] concerns Mycobacterium tuberculosis. Nature of the data set: Potency index, ratio of rifampicin MIC to test compound MIC for Mycobacterium tuberculosis H37Rv. The class given is functional.
Data set [8] relates to Mycobacterium tuberculosis. Put plainly: Potency index, ratio of isoniazid MIC to test compound MIC for Mycobacterium tuberculosis H37Rv. The class given is functional.
The subject of data set [9] is Mycobacterium tuberculosis. Put plainly: Antitubercular activity against Mycobacterium tuberculosis H37Rv by microplate alamar blue assay. The class given is functional. A general note: Resazurin is reduced to fluorescent resorufin, in cell work by metabolically active cells.
Data set [10] concerns Human immunodeficiency virus 1. Put plainly: Antiviral activity against HIV1 3B infected in human MT4 cells. The format is functional, organism-based.
Data set [11] has as its system Mycobacterium tuberculosis. Put plainly: Antimycobacterial activity against Mycobacterium tuberculosis H37Rv. The format is functional.
Data set [12] relates to Escherichia coli. Put plainly: Potency index, ratio of norfloxacin ED50 to test compound ED50 for antibacterial activity against Escherichia coli NCTC 10418 infected in po dosed CF mouse. The format is functional.

As a reminder, the IC50 is the concentration that inhibits the measured activity by half. Consider `COc1ncnc(NS(=O)(=O)c2ccc(/N=C3\C(=O)N(CN4C(C)CN(c5c(F)c(N)c6c(=O)c(C(=O)O)cn(C7CC7)c6c5F)CC4C)c4ccccc43)cc2)c1OC` (stereo unspecified), for which the IC50 in the data set on SW480, in the data set on HeLa, in the data set on A549 and in the data set on HepG2 was 18.3 to 33.6 µg/mL (≈ 21.7 to 39.8 µM) in each case.

One may read the ED50 as the dose at which the effect has come halfway, by size or by number of responders. Low readings indicate greater potency, high ones weaker potency. The term LD50 denotes the dose at which mortality reaches 50%. Low readings indicate a more toxic substance, high ones a less toxic substance. With `CCn1cc(C(=O)O)c(=O)c2cc(F)c(N3CCNCC3)cc21` [NORFLOXACIN], the 50% effect level in the data set on Escherichia coli [1] (ED50) was put at a dose of 6 mg/kg. This compound yielded a median lethal dose (LD50) at 168 h in data set [2] of 4000 mg/kg.

By MIC is commonly meant the lowest concentration that inhibits growth of the organism. Read a low MIC as a more susceptible organism. Turning to `O=C1C(=O)N(CN2CCN(c3cc4c(cc3F)c(=O)c(C(=O)O)cn4C3CC3)CC2)c2ccccc21`, the MIC (in the data set on Salmonella typhi; against Escherichia coli [3]; against Vibrio cholerae; in the data set on Staphylococcus aureus; in data set [4]; with Klebsiella pneumoniae) was 0.1 to 0.5 µg/mL (≈ 0.204 to 1.02 µM) each time. Also, the MIC in the data set on Pseudomonas aeruginosa, in the data set on Shigella flexneri and against Citrobacter freundii was 0.1 to 0.5 µg/mL (≈ 0.204 to 1.02 µM) in each case.

For the compound `CCn1cc(C(=O)O)c(=O)c2cc(F)c(N3CCN(CN4C(=O)C(=O)c5ccccc54)C(C)C3)c(F)c21` (stereo unspecified), the MIC (in the data set on Salmonella typhi; in the data set on Escherichia coli [3]; against Vibrio cholerae; against Staphylococcus aureus; in data set [4]; against Klebsiella pneumoniae) was 0.25 to 2.5 µg/mL (≈ 0.49 to 4.9 µM) in each case. In addition, the MIC against Pseudomonas aeruginosa, in the data set with Shigella flexneri and in the data set on Citrobacter freundii was 0.25 to 2.5 µg/mL (≈ 0.49 to 4.9 µM) throughout.

What is called EC50 is the concentration that produces a half-maximal response. Low readings indicate an effect from little substance, high ones a need for much substance. For the compound `CCn1cc(C(=O)O)c(=O)c2cc(F)c(N3CCN(CN4C(=O)/C(=N\NC(N)=S)c5cc(Cl)ccc54)CC3)cc21`, the response in [5] was half-maximal at 11.3 µg/mL (≈ 19.3 µM) (EC50).

As to `CO/N=C1/C(=O)N(CCn2cc(CN3CCC[C@H]4CN(c5c(F)cc6c(=O)c(C(=O)O)cn(C7CC7)c6c5OC)C[C@H]43)nn2)c2ccc(Br)cc21`, in data set [6], the MIC amounted to 0.1 µg/mL (≈ 0.131 µM). In data set [7], the Ratio amounted to 4.

The compound `CO/N=C1/C(=O)N(CCn2cc(CN3CCC[C@H]4CN(c5c(F)cc6c(=O)c(C(=O)O)cn(C7CC7)c6c5OC)C[C@H]43)nn2)c2ccccc21` had an MIC in data set [6] of 0.1 µg/mL (≈ 0.146 µM). Further, the Ratio in data set [7] was 256; in data set [8], greater than 1024.

As to `CO[C@H]1/C=C/O[C@@]2(C)Oc3c(C)c(O)c4c(O)c(c(/C=N/N5CCN(C)CC5)c(O)c4c3C2=O)NC(=O)/C(C)=C\C=C\[C@H](C)[C@H](O)[C@@H](C)[C@@H](O)[C@@H](C)[C@H](OC(C)=O)[C@@H]1C` [RIFAMPIN], the minimum inhibitory concentration (MIC) in data set [9] was 0.125 µg/mL (≈ 0.152 µM); in [6], 0.25 to 0.39 µg/mL (≈ 0.304 to 0.474 µM).

As to `Cc1cc(C)nc(NS(=O)(=O)c2ccc(/N=C3\C(=O)N(CN4C(C)CN(c5c(F)c(N)c6c(=O)c(C(=O)O)cn(C7CC7)c6c5F)CC4C)c4ccccc43)cc2)n1` (stereo unspecified), the IC50 in the data set on SW480, with HeLa, with A549 and in the data set on HepG2 was 18.3 to 50 µg/mL (≈ 22.6 to 61.6 µM) in each case.

Regarding `COc1cc(Cc2cnc(/N=C3\C(=O)N(CN4C(C)CN(c5c(F)c(N)c6c(=O)c(C(=O)O)cn(C7CC7)c6c5F)CC4C)c4ccccc43)nc2N)cc(OC)c1OC` (stereo unspecified), the IC50 in the data set with SW480, with HeLa, with A549 and with HepG2 was 18.3 to 50 µg/mL (≈ 22.2 to 60.7 µM) each time.

On to `COc1c(N2CCN(CN3C(=O)/C(=N\c4ccc(S(=O)(=O)Nc5nc(C)cc(C)n5)cc4)c4cc(F)ccc43)C(C)C2)c(F)cc2c(=O)c(C(=O)O)cn(C3CC3)c12` (stereo unspecified), for which the Activity in data set [10] was determined as 106%. A half-maximal response in data set [10] (Human immunodeficiency virus 1, 3B, MT4) (EC50) required 12.1 µg/mL (≈ 14.9 µM). The compound further registered an MIC in [11] of 1.22 µg/mL (≈ 1.5 µM).

On to `CCn1cc(C(=O)O)c(=O)c2cc(F)c(N3CCN(CN4C(=O)/C(=N\c5ccc(S(=O)(=O)Nc6ncccn6)cc5)c5ccccc54)CC3)cc21`, for which the ED50 in the data set with Escherichia coli [1] was 1.25 mg/kg. The Ratio in the data set with Escherichia coli [12] turned out to be 4.8. In addition, the LD50 at 168 h in [2] was greater than 4000 mg/kg.
